Experiments:
[1] = biological target: T1, SdCPS2 (Scoparia dulcis, UniProt A0A1U8XUA9); assay: GC-MS of n-hexane extract of recombinant E. coli cultures; format: cell-based; conditions: GGPP supplied by co-expressed SdGGPPS; 16 °C; product seen as dephosphorylated alcohol
T1 construct: gene CPS2; full ORF 2412 bp, 804 residues
T1 sequence (A0A1U8XUA9 81-804): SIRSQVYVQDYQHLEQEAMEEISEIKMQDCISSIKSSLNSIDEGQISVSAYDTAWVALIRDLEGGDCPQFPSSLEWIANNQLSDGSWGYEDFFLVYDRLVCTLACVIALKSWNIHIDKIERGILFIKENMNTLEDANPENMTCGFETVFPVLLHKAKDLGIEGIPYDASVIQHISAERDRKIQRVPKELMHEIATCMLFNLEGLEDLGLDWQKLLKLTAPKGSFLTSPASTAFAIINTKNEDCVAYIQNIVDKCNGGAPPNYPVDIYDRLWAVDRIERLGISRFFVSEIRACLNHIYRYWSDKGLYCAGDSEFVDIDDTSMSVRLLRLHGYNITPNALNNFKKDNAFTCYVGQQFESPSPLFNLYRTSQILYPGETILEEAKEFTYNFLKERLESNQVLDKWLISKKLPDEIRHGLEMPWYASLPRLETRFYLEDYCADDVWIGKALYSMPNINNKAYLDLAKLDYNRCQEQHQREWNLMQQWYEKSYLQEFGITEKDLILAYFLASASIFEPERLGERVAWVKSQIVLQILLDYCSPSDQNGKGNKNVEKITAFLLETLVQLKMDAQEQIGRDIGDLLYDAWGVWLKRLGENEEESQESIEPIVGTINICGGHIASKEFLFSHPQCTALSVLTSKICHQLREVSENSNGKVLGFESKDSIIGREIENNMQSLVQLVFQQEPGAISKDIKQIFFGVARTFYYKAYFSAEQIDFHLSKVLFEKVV

[2] = biological target: T2, OsKSL4 (Oryza sativa, UniProt Q0JEZ8); assay: as above; format: cell-based; conditions: reference enzyme; syn-CPP supplied by co-expressed SdCPS2 or OsCPS4 with SdGGPPS; 16 °C; product 7
T2 construct: gene KSL4; in pET28b (NcoI/NotI), expressed in E. coli C41
T2 sequence (Q0JEZ8 57-842): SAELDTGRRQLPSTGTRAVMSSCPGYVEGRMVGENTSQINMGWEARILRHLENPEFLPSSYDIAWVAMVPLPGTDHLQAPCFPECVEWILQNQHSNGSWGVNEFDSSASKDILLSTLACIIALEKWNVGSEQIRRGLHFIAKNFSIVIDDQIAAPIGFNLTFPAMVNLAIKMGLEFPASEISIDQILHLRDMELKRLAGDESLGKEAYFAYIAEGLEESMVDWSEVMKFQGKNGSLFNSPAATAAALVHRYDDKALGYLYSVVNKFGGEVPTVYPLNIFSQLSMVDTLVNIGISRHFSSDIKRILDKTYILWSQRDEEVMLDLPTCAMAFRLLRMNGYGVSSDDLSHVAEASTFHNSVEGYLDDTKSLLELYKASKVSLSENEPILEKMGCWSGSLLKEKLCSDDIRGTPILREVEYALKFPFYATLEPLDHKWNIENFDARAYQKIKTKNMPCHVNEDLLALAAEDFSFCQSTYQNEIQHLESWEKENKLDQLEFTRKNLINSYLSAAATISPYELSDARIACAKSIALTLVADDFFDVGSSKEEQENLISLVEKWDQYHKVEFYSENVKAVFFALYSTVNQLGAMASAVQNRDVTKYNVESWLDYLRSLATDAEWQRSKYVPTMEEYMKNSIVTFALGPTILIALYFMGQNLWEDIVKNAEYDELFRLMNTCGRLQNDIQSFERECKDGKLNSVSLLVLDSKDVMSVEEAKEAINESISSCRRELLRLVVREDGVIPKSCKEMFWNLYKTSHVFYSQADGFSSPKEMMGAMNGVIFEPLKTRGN

Compound | GC-MS of n-hexane extract of recombinant E. coli cultures [1] | GC-MS of n-hexane extract of recombinant E. coli cultures [2]
CC(C)=CCC/C(C)=C/CC/C(C)=C/CC/C(C)=C/COP(=O)(O)OP(=O)(O)O [compound 2, geranylgeranyl diphosphate] | The SdCPS2 catalyzed a cyclization reaction from GGPP to syn-CPP | 
C=C1CC[C@H]2C(C)(C)CCC[C@]2(C)[C@@H]1CC/C(C)=C/COP(=O)(O)OP(=O)(O)O [compound 3, syn-copalyl diphosphate] |  | SdCPS2 could be cyclized by OsKSL4, whose substrate is a syn-copalyl diphosphate

From article PMC9824296, “Functional Characterization of Three Diterpene Synthases Responsible for Tetracyclic Diterpene Biosynthesis in Scoparia dulcis” (Plants, 2022)
